For two compounds, Triple point temperature results are on record in the NIST ThermoML archive (doi:10.1016/j.tca.2012.03.027).

For the data set the following is noted: Crystal 2; DTA.

Each structure is given as a SMILES string. ± gives the expanded uncertainty stated by the source.

As to `CC12CCC(CC1=O)C2(C)C` (configuration not stated) [1,7,7-trimethylbicyclo[2.2.1]-2-heptanone], the Triple point temperature came out at 362 ± 4 K. Take `CC1(C)[C@@H]2CC[C@@]1(C)C(=O)C2` [d-camphor]: the Triple point temperature worked out at 367 ± 3 K.
